Data from the supplement of paper PMC10307832.

Key:
Assay in all cases: relative viability (nuclei count vs DMSO), 5 days (fraction); higher = more cells survive
[1] = tested on: NCI-H1993
Outline: (§1)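 Five library-drug doses in √10 steps were combined with a fixed anchor-drug dose, or a single drug was given alone, by pin tool to lung cancer cell lines in 1536-well plates the day after seeding. Nuclei were stained and counted after 5 days. Relative viability is the nuclei count in treated wells over that in vehicle wells, taken as the median of duplicate plates.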

[2] = tested on: RERF-LC-KJ
Outline: as §1

[3] = tested on: BEN
Outline: as §1

[4] = tested on: NCI-H1944
Outline: as §1

[5] = tested on: LXF-289
Outline: as §1

[6] = tested on: NCI-H727
Outline: as §1

[7] = tested on: NCI-H2347
Outline: as §1

[8] = tested on: NCI-H358
Outline: as §1

[9] = tested on: NCI-H2087
Outline: as §1

[10] = tested on: PC-14
Outline: as §1

[11] = tested on: NCI-H2085
Outline: as §1

[12] = tested on: NCI-H2228
Outline: as §1

[13] = tested on: LC-2-ad
Outline: as §1

[14] = tested on: HCC-78
Outline: as §1

[15] = tested on: EBC-1
Outline: as §1

[16] = tested on: EMC-BAC-2
Outline: as §1

[17] = tested on: NCI-H2170
Outline: as §1

[18] = tested on: HCC-366
Outline: as §1

[19] = tested on: NCI-H650
Outline: as §1

[20] = tested on: NCI-H1563
Outline: as §1

[21] = tested on: NCI-H1666
Outline: as §1

[22] = tested on: NCI-H1915
Outline: as §1

[23] = tested on: NCI-H1650
Outline: as §1

Nc1cccc2c1CN(C1CCC(=O)NC1=O)C2=O (stereo not given) [Lenalidomide] + C[C@@H](Oc1cc(-c2cnn(C3CCNCC3)c2)cnc1N)c1c(Cl)ccc(F)c1Cl [Crizotinib] (partner 1 µM)
relative viability ([1]; first compound 0.253 µM): 0.626 | relative viability ([1]; first compound 0.8 µM): 0.852 | relative viability ([1]; first compound 2.53 µM): 0.761 | relative viability ([1]; first compound 8 µM): 0.777 | relative viability ([2]; first compound 0.253 µM): 0.8 | relative viability ([2]; first compound 0.8 µM): 0.778 | relative viability ([2]; first compound 2.53 µM): 0.827 | relative viability ([2]; first compound 8 µM): 0.835 | relative viability ([3]; first compound 0.253 µM): 1.04 | relative viability ([3]; first compound 0.8 µM): 0.642 | relative viability ([3]; first compound 2.53 µM): 1.07 | relative viability ([3]; first compound 8 µM): 0.85 | relative viability ([4]; first compound 0.253 µM): 1.1 | relative viability ([4]; first compound 0.8 µM): 1.1 | relative viability ([4]; first compound 2.53 µM): 1.15 | relative viability ([4]; first compound 8 µM): 1 | relative viability ([5]; first compound 0.253 µM): 0.831 | relative viability ([5]; first compound 0.8 µM): 0.836 | relative viability ([5]; first compound 2.53 µM): 0.919 | relative viability ([5]; first compound 8 µM): 0.983 | relative viability ([6]; first compound 0.253 µM): 0.83 | relative viability ([6]; first compound 2.53 µM): 0.894 | relative viability ([6]; first compound 8 µM): 0.952 | relative viability ([7]; first compound 0.253 µM): 0.779 | relative viability ([7]; first compound 0.8 µM): 0.674 | relative viability ([7]; first compound 2.53 µM): 0.83 | relative viability ([7]; first compound 8 µM): 0.573 | relative viability ([8]; first compound 0.253 µM): 0.667 | relative viability ([8]; first compound 0.8 µM): 0.592 | relative viability ([8]; first compound 2.53 µM): 0.541 | relative viability ([8]; first compound 8 µM): 0.712 | relative viability ([9]; first compound 0.253 µM): 0.81 | relative viability ([9]; first compound 0.8 µM): 0.896 | relative viability ([9]; first compound 2.53 µM): 0.539 | relative viability ([9]; first compound 8 µM): 0.928 | relative viability ([10]; first compound 0.253 µM): 0.904 | relative viability ([10]; first compound 0.8 µM): 0.857 | relative viability ([10]; first compound 2.53 µM): 0.905 | relative viability ([10]; first compound 8 µM): 0.914 | relative viability ([11]; first compound 0.253 µM): 0.866 | relative viability ([11]; first compound 0.8 µM): 0.742 | relative viability ([11]; first compound 2.53 µM): 0.97 | relative viability ([11]; first compound 8 µM): 0.926 | relative viability ([12]; first compound 0.253 µM): 0.421 | relative viability ([12]; first compound 0.8 µM): 0.362 | relative viability ([12]; first compound 2.53 µM): 0.586 | relative viability ([12]; first compound 8 µM): 0.457 | relative viability ([13]; first compound 0.253 µM): 0.516 | relative viability ([13]; first compound 0.8 µM): 0.43 | relative viability ([13]; first compound 2.53 µM): 0.547 | relative viability ([13]; first compound 8 µM): 0.511 | relative viability ([14]; first compound 0.253 µM): 0.304 | relative viability ([14]; first compound 0.8 µM): 0.31 | relative viability ([14]; first compound 2.53 µM): 0.351 | relative viability ([14]; first compound 8 µM): 0.3 | relative viability ([15]; first compound 0.253 µM): 0.195 | relative viability ([15]; first compound 0.8 µM): 0.191 | relative viability ([15]; first compound 2.53 µM): 0.154 | relative viability ([15]; first compound 8 µM): 0.194 | relative viability ([16]; first compound 0.253 µM): 0.721 | relative viability ([16]; first compound 0.8 µM): 0.679 | relative viability ([16]; first compound 2.53 µM): 0.815 | relative viability ([16]; first compound 8 µM): 0.769 | relative viability ([17]; first compound 0.253 µM): 1.21 | relative viability ([17]; first compound 0.8 µM): 1.14 | relative viability ([17]; first compound 2.53 µM): 1.17 | relative viability ([17]; first compound 8 µM): 1.14 | relative viability ([18]; first compound 0.253 µM): 0.56 | relative viability ([18]; first compound 0.8 µM): 0.499 | relative viability ([18]; first compound 2.53 µM): 0.465 | relative viability ([18]; first compound 8 µM): 0.499 | relative viability ([19]; first compound 0.253 µM): 0.755 | relative viability ([19]; first compound 2.53 µM): 0.863 | relative viability ([19]; first compound 8 µM): 0.809 | relative viability ([20]; first compound 0.253 µM): 0.882 | relative viability ([20]; first compound 0.8 µM): 0.782 | relative viability ([20]; first compound 2.53 µM): 0.811 | relative viability ([20]; first compound 8 µM): 0.88 | relative viability ([21]; first compound 0.253 µM): 0.973 | relative viability ([21]; first compound 0.8 µM): 0.807 | relative viability ([21]; first compound 2.53 µM): 1.19 | relative viability ([21]; first compound 8 µM): 1.11 | relative viability ([22]; first compound 0.253 µM): 0.906 | relative viability ([22]; first compound 0.8 µM): 0.88 | relative viability ([22]; first compound 2.53 µM): 0.978 | relative viability ([22]; first compound 8 µM): 0.952 | relative viability ([23]; first compound 0.253 µM): 0.922 | relative viability ([23]; first compound 0.8 µM): 1.03 | relative viability ([23]; first compound 2.53 µM): 1.11 | relative viability ([23]; first compound 8 µM): 1.17
